Earlier results on three compounds are cited in patent US9442092B2, “Methods for treatment of autism” (priority 2011, dated 2016).

The conditions of series [1]: in vivo.

For the compound `COc1cc2c(c3oc(=O)c4c(c13)CCC4=O)[C@@H]1C=CO[C@@H]1O2` [Aflatoxin], in the series on HIV, the “Increase of HIV levels” value is recorded as 500%.
As to `CC(C)Cc1ccc(C(C)C(=O)O)cc1` (stereo not drawn) [Ibuprofen], in series [1], the “Association with Autism” value was “no association”.
Regarding `CN1C(=O)[C@]23CC4=CC=C[C@H](O)[C@H]4N2C(=O)[C@@]1(CO)SS3` [gliotoxin, Gliotoxin], in the series with HIV, the “Increase of HIV levels” value is on record as 500%.
